From PMC3608651, “A Broad Profile of Co-Dominant Epitopes Shapes the Peripheral Mycobacterium tuberculosis Specific CD8+ T-Cell Immune Response in South African Patients with Active Tuberculosis” (PLoS ONE, 2013)
Where two headings read alike, the source gives them in different places.

How the values were obtained:
Assay type in all cases: binding
[1] = biological target: T1, HLA-A*02:01 (Homo sapiens, UniProt P04439, D140Y/D185E/D98H/E176V/E277Q/G131W/G231S/I119V/I121R/I166T/I218V/L300P/L318F/N151K/N90K/P208A/P217A/Q86G/Q94H/R138H/R169H/T345S); details: peptide quantity for 50% binding saturation
[2] = biological target: HLA-C*07:01 (Homo sapiens, UniProt P10321, K90N/S123Y); details: duplicated experiments, positive binder >40%
[3] = biological target: HLA-B*07:02 (Homo sapiens, UniProt P01889); details: percent relative the binding of positive control peptide […]; duplicated experiments; positive binder >40%
[4] = biological target: T2, HLA-A*68:01 (Homo sapiens, UniProt P04439, A269V/D185E/E176V/E277Q/E87N/F33Y/G231S/I121M/I166T/I218V/L180W/L300P/L318F/N151K/P208A/P217A/Q86R/R169H/T345S); details: duplicated experiments, positive binder >40%
[5] = biological target: T1, HLA-A*02:01; details: plate-bound monomer 0.5 µg/ml, duplicated experiments, positive binder >40%
[6] = biological target: T3, HLA-A*30:02 (Homo sapiens, UniProt P04439, D101N/D140H/D185E/E176R/F33S/G80R/H175R/K168Q/Q94H/R138E/R41S/V100E); details: duplicated experiments, positive binder >40%
[7] = biological target: T1, HLA-A*02:01; details: time points 0-8 h; time when 50% of peptide has dissociated
[8] = biological target: HLA-A*24:02 (Homo sapiens, UniProt P04439, D101N/D140Y/D185E/E176V/E190D/F33S/G103R/G107R/I119L/I121M/I306V/K335N/L105A/L180Q/L300P/N151K/N90K/Q86E/Q94H/R106L/R138H/R89G/T104I/T345S/V100E/W191G/Y123F); details: duplicated experiments, positive binder >40%
[9] = biological target: HLA-A*30:01 (Homo sapiens, UniProt P04439, D140H/D185E/E176W/F33S/G80R/H175R/K168Q/R138E/R41S); details: duplicated experiments, positive binder >40%
[10] = biological target: T4, HLA-B*58:01 (Homo sapiens, UniProt P01889, A329T/C349S/D201E/D98Y/E176V/E187L/E204Q/E69T/G107R/I218V/I90N/K202T/L105A/L119I/N104I/N87E/Q89R/Q94S/R106L/R155S/R180L/R86G/S101N/S121R/S35A/S48A/T118I/V127L/V306I/V36M/Y140S/Y91M); details: duplicated experiments, positive binder >40%
[11] = biological target: T4, HLA-B*58:01
[12] = biological target: T2, HLA-A*68:01; details: time points 0-8 h
[13] = biological target: T4, HLA-B*58:01; details: time points 0-8 h
[14] = biological target: T2, HLA-A*68:01
[15] = biological target: T3, HLA-A*30:02; details: time points 0-8 h
[16] = biological target: T3, HLA-A*30:02
[17] = peptide titrated 10−4 to 10−9 M
[18] = percent relative the binding of positive control peptide KYFDEHYEY
[19] = percent relative the binding of positive control peptide KTGGPIYKR
[20] = percent relative the binding of positive control peptide FLPSDFFPSV
[21] = percent relative the binding of positive control peptide KIQNFRVYY
[22] = percent relative the binding of positive control peptide RYLKDQQLL
[23] = percent relative the binding of positive control peptide KTKDIVNGL
[24] = percent relative the binding of positive control peptide IAMESIVIW
[25] = percent relative the binding of positive control peptide […]

Substance: KLAAAWGGS [Rv3875_38-46]
- Aff A*02:01 (ED50) [1, 17]: 100 nM
- Bind C*07:01 [2, 18]: 11%
- Bind B*07:02 [3]: 6%
- Bind A*68:01 [4, 19]: 0%
- Bind A*02:01 [5, 20]: 57%
- Bind A*30:02 [6, 21]: 39%
- O-rate A*02:01 (t1/2) [7]: 2 h
- Bind A*24:02 [8, 22]: 33%
- Bind A*30:01 [9, 23]: 0%
- Bind B*58:01 [10, 24]: 21%

Substance: QAWQAQWNQ [Rv0288_52–60]
- Aff B*58:01 (ED50) [11]: 4000 nM
- Bind C*07:01 [2, 25]: 0%
- Bind A*68:01 [4, 25]: 55%
- O-rate A*68:01 (t1/2) [12]: 3.0 h
- O-rate B*58:01 (t1/2) [13]: 0.5 h
- Aff A*68:01 (ED50) [14]: 7000 nM
- Bind B*58:01 [10, 25]: 45%

Substance: EQAALQSAW [Rv0288_35–43]
- Aff B*58:01 (ED50) [11]: 6000 nM
- Bind C*07:01 [2, 25]: 0%
- Bind A*68:01 [4, 25]: 47%
- O-rate A*68:01 (t1/2) [12]: 2.8 h
- O-rate B*58:01 (t1/2) [13]: 0.8 h
- Aff A*68:01 (ED50) [14]: 10000 nM
- Bind B*58:01 [10, 25]: 79%

Substance: MLDHAGDMA [Rv0288_11–19m1]
- Aff A*02:01 (ED50) ([1]; […]): 60 nM
- Bind A*02:01 [5, 25]: 48%
- O-rate A*02:01 (t1/2) [7]: 1.5 h

Substance: GLSIVMPVG
- Aff A*02:01 (ED50) ([1]; […]): 70 nM
- Bind C*07:01 [2, 25]: 0%
- Bind B*07:02 [3]: 0%
- Bind A*68:01 [4, 25]: 0%
- Bind A*02:01 [5, 25]: 100%
- Bind A*30:02 [6, 25]: 0%
- O-rate A*02:01 (t1/2) [7]: 2.1 h
- Bind A*24:02 [8, 25]: 0%
- Bind A*30:01 [9, 25]: 0%
- Bind B*58:01 [10, 25]: 0%

Substance: LLDEGKQSL [Rv3875_28–36]
- Aff A*02:01 (ED50) [1, 17]: 700 nM
- Bind C*07:01 [2, 18]: 19%
- Bind B*07:02 [3]: 3%
- Bind A*68:01 [4, 19]: 4%
- Bind A*02:01 [5, 20]: 61%
- Bind A*30:02 [6, 21]: 0%
- O-rate A*02:01 (t1/2) [7]: 4.9 h
- Bind A*24:02 [8, 22]: 0%
- Bind A*30:01 [9, 23]: 20%
- Bind B*58:01 [10, 24]: 2%

Substance: SQIMYNYPT [Rv0288_2–10m1]
- Aff A*02:01 (ED50) ([1]; […]): 1000 nM
- Bind A*02:01 [5, 25]: 47%
- O-rate A*30:02 (t1/2) [15]: 0.5 h
- Bind A*30:02 [6, 25]: 31%
- O-rate A*02:01 (t1/2) [7]: 0.7 h
- Aff A*30:02 (ED50) [16]: 4000 nM

Substance: NLARTISEA [Rv3875_71–79]
- Aff A*02:01 (ED50) [1, 17]: 40 nM
- Bind C*07:01 [2, 18]: 12%
- Bind B*07:02 [3]: 10%
- Bind A*68:01 [4, 19]: 9%
- Bind A*02:01 [5, 20]: 72%
- Bind A*30:02 [6, 21]: 17%
- O-rate A*02:01 (t1/2) [7]: 2.3 h
- Bind A*24:02 [8, 22]: 11%
- Bind A*30:01 [9, 23]: 15%
- Bind B*58:01 [10, 24]: 21%

Substance: ITYQAWQAQ [Rv0288_49–57]
- Aff B*58:01 (ED50) [11]: 200 nM
- Bind C*07:01 [2, 25]: 0%
- Bind A*68:01 [4, 25]: 56%
- O-rate A*68:01 (t1/2) [12]: 1.9 h
- O-rate B*58:01 (t1/2) [13]: 0.5 h
- Aff A*68:01 (ED50) [14]: 9000 nM
- Bind B*58:01 [10, 25]: 78%

Substance: RDTAEAAKW [Rv0288_86–94]
- Aff B*58:01 (ED50) [11]: 5000 nM
- Bind C*07:01 [2, 25]: 0%
- Bind A*68:01 [4, 25]: 65%
- O-rate A*68:01 (t1/2) [12]: 4.3 h
- O-rate B*58:01 (t1/2) [13]: 2.6 h
- Aff A*68:01 (ED50) [14]: 10000 nM
- Bind B*58:01 [10, 25]: 45%

Substance: F EW YYQSG L
- Aff A*02:01 (ED50) ([1]; […]): 700 nM
- Bind C*07:01 [2, 25]: 15%
- Bind B*07:02 [3]: 11%
- Bind A*68:01 [4, 25]: 10%
- Bind A*02:01 [5, 25]: 124%
- Bind A*30:02 [6, 25]: 26%
- O-rate A*02:01 (t1/2) [7]: 0.8 h
- Bind A*24:02 [8, 25]: 37%
- Bind A*30:01 [9, 25]: 10%
- Bind B*58:01 [10, 25]: 0%

Substance: IQGNVTSIH [Rv3875_18–26]
- Aff A*02:01 (ED50) [1, 17]: 1000 nM
- Bind C*07:01 [2, 18]: 5%
- Bind B*07:02 [3]: 3%
- Bind A*68:01 [4, 19]: 17%
- Bind A*02:01 [5, 20]: 51%
- Bind A*30:02 [6, 21]: 36%
- O-rate A*02:01 (t1/2) [7]: 0.2 h
- Bind A*24:02 [8, 22]: 0%
- Bind A*30:01 [9, 23]: 13%
- Bind B*58:01 [10, 24]: 7%

Substance: ALQNLARTI [Rv3875_68–76]
- Aff A*02:01 (ED50) [1, 17]: 30 nM
- Bind C*07:01 [2, 18]: 0%
- Bind B*07:02 [3]: 8%
- Bind A*68:01 [4, 19]: 0%
- Bind A*02:01 [5, 20]: 73%
- Bind A*30:02 [6, 21]: 17%
- O-rate A*02:01 (t1/2) [7]: 1.7 h
- Bind A*24:02 [8, 22]: 0%
- Bind A*30:01 [9, 23]: 0%
- Bind B*58:01 [10, 24]: 0%
